Tests used:
Maltase-glucoamylase [1] = target: T1, Maltase-glucoamylase (Homo sapiens, UniProt O43451); test: Non-competitive inhibition of alpha-glucosidase (unknown origin) using p-nitrophenyl-alpha-D glucopyranoside as substrate incubated for 30 mins by Lineweaver-Burk plot analysis
Maltase-glucoamylase [2] = target: T1, Maltase-glucoamylase; test: Mixed type inhibition of alpha-glucosidase (unknown origin) using p-nitrophenyl-alpha-D glucopyranoside as substrate incubated for 30 mins by Lineweaver-Burk plot analysis

T1 sequence (O43451 whole entry): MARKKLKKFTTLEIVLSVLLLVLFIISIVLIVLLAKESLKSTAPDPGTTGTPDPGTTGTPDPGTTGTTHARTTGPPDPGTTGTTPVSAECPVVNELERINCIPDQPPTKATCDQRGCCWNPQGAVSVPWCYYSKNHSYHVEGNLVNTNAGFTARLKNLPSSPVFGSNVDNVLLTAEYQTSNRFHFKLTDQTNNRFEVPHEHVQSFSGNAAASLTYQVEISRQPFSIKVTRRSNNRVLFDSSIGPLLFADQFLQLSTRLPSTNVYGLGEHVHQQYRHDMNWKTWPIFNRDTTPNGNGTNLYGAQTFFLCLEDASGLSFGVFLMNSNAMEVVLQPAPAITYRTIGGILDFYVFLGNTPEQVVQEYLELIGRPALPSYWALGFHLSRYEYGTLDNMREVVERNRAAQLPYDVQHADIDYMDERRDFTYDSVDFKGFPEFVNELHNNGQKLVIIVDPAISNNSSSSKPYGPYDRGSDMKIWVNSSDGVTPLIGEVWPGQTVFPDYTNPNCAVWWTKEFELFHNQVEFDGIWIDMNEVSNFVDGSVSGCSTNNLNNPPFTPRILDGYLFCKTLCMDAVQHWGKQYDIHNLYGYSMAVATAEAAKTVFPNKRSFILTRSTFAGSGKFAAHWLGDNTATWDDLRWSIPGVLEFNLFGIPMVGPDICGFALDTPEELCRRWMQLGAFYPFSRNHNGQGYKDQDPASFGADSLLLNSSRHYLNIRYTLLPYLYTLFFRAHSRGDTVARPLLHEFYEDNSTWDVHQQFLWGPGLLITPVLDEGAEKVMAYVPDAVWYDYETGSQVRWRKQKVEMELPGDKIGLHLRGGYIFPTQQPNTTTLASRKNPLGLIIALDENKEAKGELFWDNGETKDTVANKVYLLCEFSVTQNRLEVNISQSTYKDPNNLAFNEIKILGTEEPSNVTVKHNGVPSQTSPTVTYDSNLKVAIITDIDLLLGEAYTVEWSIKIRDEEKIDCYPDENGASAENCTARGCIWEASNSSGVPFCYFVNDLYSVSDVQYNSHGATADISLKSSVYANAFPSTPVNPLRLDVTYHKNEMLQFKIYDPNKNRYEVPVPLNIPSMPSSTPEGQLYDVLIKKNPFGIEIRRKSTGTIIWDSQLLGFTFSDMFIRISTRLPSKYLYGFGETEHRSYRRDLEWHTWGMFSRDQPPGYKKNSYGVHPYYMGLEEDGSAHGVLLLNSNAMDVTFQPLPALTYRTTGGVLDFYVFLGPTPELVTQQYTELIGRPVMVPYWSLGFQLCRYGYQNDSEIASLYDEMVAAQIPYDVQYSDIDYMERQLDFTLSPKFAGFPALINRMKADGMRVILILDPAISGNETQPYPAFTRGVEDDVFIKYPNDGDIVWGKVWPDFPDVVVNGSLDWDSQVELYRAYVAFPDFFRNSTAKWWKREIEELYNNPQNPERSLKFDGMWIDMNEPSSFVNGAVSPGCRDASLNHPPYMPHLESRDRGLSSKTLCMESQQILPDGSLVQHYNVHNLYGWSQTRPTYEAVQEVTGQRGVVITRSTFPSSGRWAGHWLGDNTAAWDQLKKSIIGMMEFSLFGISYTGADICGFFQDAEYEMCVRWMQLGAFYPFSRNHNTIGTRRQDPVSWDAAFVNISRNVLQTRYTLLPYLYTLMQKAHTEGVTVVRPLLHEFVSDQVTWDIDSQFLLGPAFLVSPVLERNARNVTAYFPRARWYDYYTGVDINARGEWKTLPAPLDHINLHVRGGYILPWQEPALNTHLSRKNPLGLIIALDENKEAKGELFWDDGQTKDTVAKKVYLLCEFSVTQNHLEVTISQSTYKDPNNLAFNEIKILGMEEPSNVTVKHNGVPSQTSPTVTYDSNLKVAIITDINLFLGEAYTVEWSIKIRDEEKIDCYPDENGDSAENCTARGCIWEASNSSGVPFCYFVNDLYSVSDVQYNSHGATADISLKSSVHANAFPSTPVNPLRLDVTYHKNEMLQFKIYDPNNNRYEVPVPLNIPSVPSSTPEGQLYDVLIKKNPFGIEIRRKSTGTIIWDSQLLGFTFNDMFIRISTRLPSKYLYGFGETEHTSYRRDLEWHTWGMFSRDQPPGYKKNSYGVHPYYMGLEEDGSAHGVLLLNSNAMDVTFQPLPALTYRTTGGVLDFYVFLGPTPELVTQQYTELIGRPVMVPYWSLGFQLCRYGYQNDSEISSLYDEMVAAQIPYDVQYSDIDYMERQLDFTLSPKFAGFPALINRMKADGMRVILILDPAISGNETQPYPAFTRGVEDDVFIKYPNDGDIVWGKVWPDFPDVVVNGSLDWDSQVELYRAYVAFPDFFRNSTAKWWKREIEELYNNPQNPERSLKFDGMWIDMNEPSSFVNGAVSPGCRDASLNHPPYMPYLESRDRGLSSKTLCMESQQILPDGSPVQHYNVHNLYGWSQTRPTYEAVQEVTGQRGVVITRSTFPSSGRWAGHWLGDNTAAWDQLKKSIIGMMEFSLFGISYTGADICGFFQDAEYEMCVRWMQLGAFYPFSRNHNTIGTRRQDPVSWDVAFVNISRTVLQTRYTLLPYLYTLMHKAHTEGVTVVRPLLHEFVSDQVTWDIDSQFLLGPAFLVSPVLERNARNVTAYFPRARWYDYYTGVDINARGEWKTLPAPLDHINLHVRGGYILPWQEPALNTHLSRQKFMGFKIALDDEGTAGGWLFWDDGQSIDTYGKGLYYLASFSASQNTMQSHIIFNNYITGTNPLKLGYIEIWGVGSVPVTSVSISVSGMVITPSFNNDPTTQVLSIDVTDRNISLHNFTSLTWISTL

Row | Structure (SMILES) | Ki (Maltase-glucoamylase [1]) [µM] | Ki (Maltase-glucoamylase [2]) [µM]
1 | CC(C)=CCc1cc(C(=O)/C=C/c2ccc(O)c(O)c2)c(O)cc1O [broussochalcone A] | 5.3 | –
2 | CC(C)=CCc1cc(-c2oc3cc(O)c(CC=C(C)C)c(O)c3c(=O)c2O)cc(O)c1O [CHEBI:66727] | – | 2.3
